According to patent publication US11464770B2, “Anticancer pharmaceutical composition” (NATIONAL CANCER CENTER, priority 2016, dated 2022):
Where two headings read alike, the source gives them in different places.

How the values were obtained:
[1] = test system: brain cancer cell lines; test: Cell based assay, cell viability (CellTiter-Glo), brain cancer cell lines; conditions: Homo sapiens
Description: Commercially available bladder cancer, prostate cancer, lung cancer, breast cancer, blood cancer, pancreatic cancer, colorectal cancer, brain cancer, neuroblastoma, melanoma, liver cancer, cervical carcinoma, ovarian cancer, renal cancer, and papilloma cell lines were each treated with trypsin-EDTA and cultured, followed by being seeded in each well of a 96 well plate. […] The treated cells were additionally cultured for 72 hours, and cell viability was measured by using an ATP detection method (CellTiter-Glo® Luminescent Cell Viability Assay, Promega).

[2] = test system: melanoma cell lines; test: Cell based assay, cell viability (CellTiter-Glo), melanoma cell lines; conditions: Homo sapiens; LOX-IMVI cell line
Description: (§1) Commercially available bladder cancer, prostate cancer, lung cancer, breast cancer, blood cancer, pancreatic cancer, colorectal cancer, brain cancer, neuroblastoma, melanoma, liver cancer, cervical carcinoma, ovarian cancer, renal cancer, and papilloma cell lines were each treated with trypsin-EDTA and cultured, followed by being seeded in each well of a 96 well plate. After 24 hours of treatment at constant temperature, the respective cells were treated with the candidate compound so that a final concentration became 0 to 2 μM. The treated cells were additionally cultured for 72 hours, and cell viability was measured by using an ATP detection method (CellTiter-Glo® Luminescent Cell Viability Assay, Promega).

[3] = test system: lung cancer cell lines (e.g. NCI-H23, NCI-H1229); test: Cell based assay, cell viability (CellTiter-Glo), lung cancer cell lines; conditions: Homo sapiens, 72 hours treatment, CellTiter-Glo
Description: as §1

[4] = U138-MG, U-138 MG cell line, read-out: IC50, Brain cancer cell line U-138 MG
[5] = T98G cell line, read-out: IC50, Brain cancer cell line T98G
[6] = U-251 MG cell line, read-out: IC50, Brain cancer cell line U-251 MG
[7] = A549 cells, read-out: IC50, lung cancer cell line A549
[8] = DMS 114 cells, read-out: IC50, lung cancer cell line DMS 114
[9] = NCI-H23 cells, read-out: IC50, lung cancer cell line NCI-H23
[10] = NCI-H460 cells, read-out: IC50, lung cancer cell line NCI-H460
[11] = NCI-H522 cells, read-out: IC50, lung cancer cell line NCI-H522
[12] = NCI-H1299 cells, read-out: IC50, lung cancer cell line NCI-H1299
[13] = NCI-H1437 cells, read-out: IC50, lung cancer cell line NCI-H1437

Compound	IC50 [1, 4] [nM]	IC50 [1, 5] [nM]	IC50 [1, 6] [nM]	IC50 [2] [nM]	IC50 [3, 7] [nM]	IC50 [3, 8] [nM]	IC50 ([3]; MRC-5 cells, read-out: IC50) [nM]	IC50 [3, 9] [nM]	IC50 [3, 10] [nM]	IC50 [3, 11] [nM]	IC50 [3, 12] [nM]	IC50 [3, 13] [nM]
CC(=O)c1c(SCc2ccc(F)c(Cl)c2)[nH]c2c(Br)ccc(Cl)c2c1=O [Compound 30, 3-acetyl-8-bromo-5-chloro-2-((3-chloro-4-fluorobenzyl)thio)quinolin-4(1H)-one]	> 10000	> 10000	> 2000	> 2000	> 2000	> 2000	> 2000	> 2000	> 2000	> 2000	> 2000	> 10000
CC(=O)c1c(SCc2ccc([N+](=O)[O-])cc2)[nH]c2c(Br)ccc(Cl)c2c1=O [Compound 32, 3-acetyl-8-bromo-5-chloro-2-((4-nitrobenzyl)thio)quinolin-4(1H)-one]	> 10000	> 10000	> 2000	> 2000	> 2000	> 2000	> 2000	> 2000	> 2000	> 2000	> 2000	> 10000
CSc1c(C(C)=O)c(=O)c2c(Cl)ccc(Br)c2n1S(C)(=O)=O [Compound 35, 3-acetyl-8-bromo-5-chloro-1-(methylsulfonyl)-2-(methylthio)quinolin-4(1H)-one]	> 10000	> 10000	> 2000	> 2000	> 2000	> 2000	> 2000	> 2000	> 2000	> 2000	> 2000	> 10000
CC(=O)c1c([S+](C)[O-])n(S(=O)(=O)C(F)(F)F)c2c(Br)ccc(Cl)c2c1=O (stereo not drawn) [Compound 36, 3-acetyl-8-bromo-5-chloro-2-(methylsulfinyl)-1-((trifluoromethyl)sulfonyl)quinolin-4(1H)-one]	> 2000	> 10000	> 2000	> 2000	> 2000	> 2000	> 2000	> 2000	> 2000	> 2000	> 2000	> 10000
CSc1c(C(C)=O)c(=O)c2c(Cl)ccc(Br)c2n1S(=O)(=O)c1ccc(Cl)cc1 [Compound 37, 3-acetyl-8-bromo-5-chloro-1-((4-chlorophenyl)sulfonyl)-2-(methylthio)quinolin-4(1H)-one]	> 10000	> 10000	> 2000	> 2000	> 2000	> 2000	> 2000	> 2000	> 2000	> 2000	> 2000	> 10000
CSc1c(C(C)=O)c(=O)c2c(Cl)ccc(Br)c2n1S(=O)(=O)c1ccc([N+](=O)[O-])cc1 [Compound 38, 3-acetyl-8-bromo-5-chloro-2-(methylthio)-1-((4-nitrophenyl)sulfonyl)quinolin-4(1H)-one]	> 10000	> 10000	> 2000	> 2000	> 2000	> 2000	> 2000	> 2000	> 2000	> 2000	> 2000	> 10000
CCS(=O)(=O)n1c([S+](C)[O-])c(C(C)=O)c(=O)c2c(Cl)ccc(Br)c21 (stereo not drawn) [Compound 39, 3-acetyl-8-bromo-5-chloro-1-(ethylsulfonyl)-2-(methylsulfinyl)quinolin-4(1H)-one]	> 10000	> 10000	> 2000	> 2000	> 2000	> 2000	> 2000	> 2000	> 2000	> 2000	> 2000	> 10000
CSc1c(C(C)=O)c(=O)c2c(Cl)ccc(Br)c2n1S(=O)(=O)c1ccc(C(C)(C)C)cc1 [Compound 40, 3-acetyl-8-bromo-1-((4-(tert-butyl)phenyl)sulfonyl)-5-chloro-2-(methylthio)quinolin-4(1H)-one]	> 10000	> 10000	> 2000	> 2000	> 2000	> 2000	> 2000	> 2000	> 2000	> 2000	> 2000	> 10000
CC(=O)c1c(S(C)(=O)=O)n(S(=O)(=O)c2ccc(C(C)(C)C)cc2)c2c(Br)ccc(Cl)c2c1=O [Compound 41, 3-acetyl-8-bromo-1-((4-(tert-butyl)phenyl)sulfonyl)-5-chloro-2-(methylsulfonyl)quinolin-4(1H)-one]	> 10000	> 10000	> 2000	> 2000	> 2000	> 2000	> 2000	> 2000	> 2000	> 2000	> 2000	> 10000
CC(=O)c1c([S+](C)[O-])n(S(=O)(=O)c2ccc(C(C)(C)C)cc2)c2c(Br)ccc(Cl)c2c1=O (stereo not drawn) [Compound 42, 3-acetyl-8-bromo-1-((4-(tert-butyl)phenyl)sulfonyl)-5-chloro-2-(methylsulfinyl)quinolin-4(1H)-one]	> 2000	> 10000	> 2000	> 2000	> 2000	> 2000	> 2000	1840	> 2000	> 2000	> 2000	> 10000
CC(=O)c1c(SCc2cc(Cl)ccc2Cl)[nH]c2c(Br)ccc(Cl)c2c1=O [Compound 43, 3-acetyl-8-bromo-5-chloro-2-((2,5-dichlorobenzyl)thio)quinolin-4(1H)-one]	> 10000	> 10000	> 2000	> 2000	> 2000	> 2000	> 2000	> 2000	> 2000	> 2000	> 2000	> 10000
CC(=O)c1c(SCc2cc(F)cc(F)c2)[nH]c2c(Br)ccc(Cl)c2c1=O [Compound 45, 3-acetyl-8-bromo-5-chloro-2-((3,5-difluorobenzyl)thio)quinolin-4(1H)-one]	> 10000	> 10000	> 2000	> 2000	> 2000	> 2000	> 2000	> 2000	> 2000	> 2000	> 2000	> 10000
